Source: publication PMC8954792 (Viruses, 2022)
Where two headings read alike, the source gives them in different places.

Tests used:
cell-free SARS-CoV-2 PsV = assay: Inactivation of cell-free SARS-CoV-2 PsV; assay type: cell-based
authentic HCoV-OC43 = assay: CPE reduction assay, authentic HCoV-OC43; assay type: cell-based; conditions: HCoV-OC43 infection, RD cells, CCK-8
H5N1 PsV = assay: microbe, parasite or virus in culture; assay type: cell-based, influenza virus; conditions: read-out: IC50 H5N1
H7N9 PsV = assay: microbe, parasite or virus in culture; assay type: cell-based, influenza virus; conditions: read-out: IC50 H7N9
EBOV (Zaire) = assay: microbe, parasite or virus in culture; assay type: cell-based, Ebola virus
EBOV (Sudan) = assay: microbe, parasite or virus in culture; assay type: cell-based, Ebola virus
NiV = assay: microbe, parasite or virus in culture; assay type: cell-based, Nipah virus
LASV = assay: organism not typed; assay type: cell-based, Lassa fever virus
[1] = test system: authentic ZIKV PRVABC59 (2015/Puerto Rico); assay: microbe, parasite or virus in culture; assay type: cell-based
VSV PsV = assay: microbe, parasite or virus in culture; assay type: cell-based, vesicular stomatitis virus
HPV PsV = assay type: cell-based, human papilloma virus
authentic EV71 = assay: CPE reduction assay, authentic EV71; assay type: cell-based, human enterovirus 71 virus; conditions: RD cells
HIV-1 6-HB = HIV-1 6-HB (Human immunodeficiency virus type 1, UniProt P04578); assay: Inhibition of HIV-1 6-HB formation (ELISA); assay type: biochemical; conditions: HIV-1 6-HB formation measured by ELISA
Sequence of HIV-1 6-HB (P04578 536-581, added parts left off): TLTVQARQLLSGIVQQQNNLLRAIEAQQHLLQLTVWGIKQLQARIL
Sequence of HIV-1 6-HB (P04578 536-581, added parts left off): as above

HIV-1 Bal.01 PsV [2] = assay: Sucrose density gradient assay to evaluate viral inactivation; conditions: HIV-1 Bal.01 PsV treated with 50 μM at 37 °C for 2 h
SARS-CoV-2 PsV [3] = assay type: cell-based
HIV-1 Bal.01 PsV [4] = assay: HIV-1 PsV inhibition in presence of recombinant unilamellar liposomes; assay type: cell-based; conditions: compared with the PBS group
[5] = test system: authentic IAV H3N2 (A/Victoria/361/2011); assay type: cell-based, influenza virus
[6] = test system: authentic IAV H1N1 (A/California/04/2009); assay type: cell-based, influenza virus
Vero E6 cells = assay type: cell-based
SARS-CoV PsV [7] = test system: SARS-CoV PsV
cell-free SARS-CoV PsV [8] = test system: cell-free SARS-CoV PsV
MERS-CoV PsV [9] = test system: MERS-CoV PsV
cell-free MERS-CoV PsV [10] = test system: cell-free MERS-CoV PsV
Huh-7 cells = assay: Cytotoxicity (CCK-8) on Huh-7 cells
hACE2-293T cells = assay: Cytotoxicity (CCK-8) on hACE2-293T cells
SARS-CoV-2 PsV [11] = assay: microbe, parasite or virus in culture; assay type: cell-based; conditions: Severe acute respiratory syndrome coronavirus 2
[12] = test system: pseudotyped SARS-CoV-2 Alpha (B.1.1.7); assay: microbe, parasite or virus in culture; assay type: cell-based; conditions: Severe acute respiratory syndrome coronavirus 2, Caco-2
[13] = test system: pseudotyped SARS-CoV-2 Beta (B.1.351); assay: microbe, parasite or virus in culture; assay type: cell-based; conditions: Severe acute respiratory syndrome coronavirus 2, Caco-2
[14] = test system: pseudotyped SARS-CoV-2 Gamma (P.1); assay: microbe, parasite or virus in culture; assay type: cell-based; conditions: Severe acute respiratory syndrome coronavirus 2, Caco-2
[15] = test system: pseudotyped SARS-CoV-2 Omicron (B.1.1.529); assay: microbe, parasite or virus in culture; assay type: cell-based; conditions: Severe acute respiratory syndrome coronavirus 2, Caco-2
[16] = test system: authentic SARS-CoV-2 WT (nCoV-SH01); assay: microbe, parasite or virus in culture; assay type: cell-based; conditions: Severe acute respiratory syndrome coronavirus 2, Vero C1008
in vitro = conditions: dog
[17] = Cytotoxicity (CCK-8) on Huh-7 cells; conditions: human
SARS-CoV PsV [18] = assay: microbe, parasite or virus in culture; conditions: Severe acute respiratory syndrome coronavirus
cell-free SARS-CoV PsV [19] = assay: microbe, parasite or virus in culture; conditions: Severe acute respiratory syndrome coronavirus
MERS-CoV PsV [20] = assay: microbe, parasite or virus in culture; conditions: Middle East respiratory syndrome-related coronavirus, Huh-7
cell-free MERS-CoV PsV [21] = assay: microbe, parasite or virus in culture; conditions: Middle East respiratory syndrome-related coronavirus, Huh-7
[22] = Cytotoxicity (CCK-8) on hACE2-293T cells; conditions: human

O=C(O)c1cc(-c2ccc(C=C3SC(=S)N(CCc4ccccc4)C3=O)o2)ccc1Cl [FD001, furanyl methylidene rhodanine]
EC50 (cell-free SARS-CoV-2 PsV): 670 nM
IC50 (authentic HCoV-OC43): 480 nM
IC50 (H5N1 PsV): 260 ± 30 nM
IC50 (H7N9 PsV): 850 ± 210 nM
IC50 (EBOV (Zaire)): 1040 ± 110 nM
IC50 (EBOV (Sudan)): 390 ± 40 nM
IC50 (NiV): 410 ± 70 nM
IC50 (LASV): 440 ± 100 nM
IC50 ([1]; read-out: IC50): 4360 nM
IC50 (VSV PsV; read-out: IC50): 20 nM
inhibition of infection of nonenveloped HPV PsV (HPV PsV): could not inhibit
inhibition of infection of authentic EV71 (authentic EV71): could not inhibit
IC50 (HIV-1 6-HB): 17400 nM
integrity of the viral membrane (band distribution of p24) (HIV-1 Bal.01 PsV [2]): did not disrupt the integrity of the viral membrane
inhibition of SARS-CoV-2 PsV infection after unbound compound washed from cells (SARS-CoV-2 PsV [3]): not effective in inhibiting viral infection after washing
antiviral activity, liposomes added to HIV-1 PsV pretreated with compound (HIV-1 Bal.01 PsV [4]): good antiviral activity
inhibitory activity against HIV-1 PsV, compound pretreated with liposomes (HIV-1 Bal.01 PsV [4]): no different from that of the PBS group
inhibition of authentic IAV H3N2 infection [5]: inhibited
inhibition of authentic IAV H1N1 infection [6]: inhibited
fluorescence intensity of treated cells (binding to cells) (Vero E6 cells): positively correlated with compound concentration
IC50 (SARS-CoV PsV [7]): 180 ± 20 nM
SI CC50/IC50 (SARS-CoV PsV [7]): 160.22
EC50 (cell-free SARS-CoV PsV [8]): 1580 ± 210 nM
SI CC50/EC50 (cell-free SARS-CoV PsV [8]): 18.25
IC50 (MERS-CoV PsV [9]): 290 ± 30 nM
SI CC50/IC50 (MERS-CoV PsV [9]): 147.07
EC50 (cell-free MERS-CoV PsV [10]): 1120 ± 160 nM
SI CC50/EC50 (cell-free MERS-CoV PsV [10]): 38.08
CC50 (MDCK cells): > 50000 nM
CC50 (Huh-7 cells): 42600 ± 1310 nM
CC50 (hACE2-293T cells): 28800 ± 1240 nM

O=C(O)c1cc(-c2ccc(/C=C3\SC(=S)N(CCc4ccc(OCC5CC5)cc4)C3=O)o2)ccc1Cl [FD012]
IC50 (SARS-CoV-2 PsV [11]): 30 nM
IC50 [12]: 350 nM
IC50 [13]: 270 nM
IC50 [14]: 250 nM
IC50 [15]: 770 nM
IC50 [16]: 410 nM
EC50 (cell-free SARS-CoV-2 PsV; Severe acute respiratory syndrome coronavirus 2): 40 nM
IC50 (authentic HCoV-OC43; Betacoronavirus 1): 110 nM
IC50 (H5N1 PsV; Influenza A virus, H5N1, MDCK): 150 ± 10 nM
IC50 (H7N9 PsV; Influenza A virus, H7N9, MDCK): 230 ± 20 nM
IC50 (EBOV (Zaire); Zaire ebolavirus, Huh-7): 90 ± 20 nM
IC50 (EBOV (Sudan); Zaire ebolavirus, Huh-7): 190 ± 20 nM
IC50 (NiV; Henipavirus nipahense, U-87 MG): 70 ± 10 nM
IC50 (LASV; Huh-7): 320 ± 40 nM
IC50 ([1]; Zika virus, Vero C1008): 910 nM
IC50 (VSV PsV; Vesicular stomatitis virus, Huh-7): 5 nM
inhibition of infection of nonenveloped HPV PsV (HPV PsV): could not inhibit
inhibition of infection of authentic EV71 (authentic EV71): could not inhibit
IC50 (HIV-1 6-HB): 50100 nM
inhibition of SARS-CoV-2 PsV infection after unbound compound washed from cells (SARS-CoV-2 PsV [3]): not effective in inhibiting viral infection after washing
fluorescence intensity of treated cells (binding to cells) (Vero E6 cells): positively correlated with compound concentration
inhibitory activity relative to FD001 (SARS-CoV PsV [7]): ~10 fold
SI CC50/EC50 (cell-free SARS-CoV PsV [8]): 102.50
SI CC50/IC50 (MERS-CoV PsV [9]): 169.27
SI CC50/EC50 (cell-free MERS-CoV PsV [10]): 372.40
CC50 (in vitro): 41700 nM
CC50 at 48 h [17]: 18600 ± 350 nM
IC50 (SARS-CoV PsV [18]): 20 ± 10 nM
EC50 (cell-free SARS-CoV PsV [19]): 120 ± 10 nM
IC50 (MERS-CoV PsV [20]): 110 ± 10 nM
EC50 (cell-free MERS-CoV PsV [21]): 50 ± 10 nM
CC50 at 48 h [22]: 12300 ± 340 nM
